Experimental data reported in ChEMBL document CHEMBL1201862, “PubChem BioAssay data set” (2004).
Each block holds one molecule with its values, some of them ahead of it.

How the values were obtained:
Cytochrome P450 1A2 = molecular target: T1, Cytochrome P450 1A2 (Homo sapiens, UniProt P05177);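 note: PubChem cytochrome P450 panel assay, CYP1A2 panel member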
T1 sequence (P05177 whole entry): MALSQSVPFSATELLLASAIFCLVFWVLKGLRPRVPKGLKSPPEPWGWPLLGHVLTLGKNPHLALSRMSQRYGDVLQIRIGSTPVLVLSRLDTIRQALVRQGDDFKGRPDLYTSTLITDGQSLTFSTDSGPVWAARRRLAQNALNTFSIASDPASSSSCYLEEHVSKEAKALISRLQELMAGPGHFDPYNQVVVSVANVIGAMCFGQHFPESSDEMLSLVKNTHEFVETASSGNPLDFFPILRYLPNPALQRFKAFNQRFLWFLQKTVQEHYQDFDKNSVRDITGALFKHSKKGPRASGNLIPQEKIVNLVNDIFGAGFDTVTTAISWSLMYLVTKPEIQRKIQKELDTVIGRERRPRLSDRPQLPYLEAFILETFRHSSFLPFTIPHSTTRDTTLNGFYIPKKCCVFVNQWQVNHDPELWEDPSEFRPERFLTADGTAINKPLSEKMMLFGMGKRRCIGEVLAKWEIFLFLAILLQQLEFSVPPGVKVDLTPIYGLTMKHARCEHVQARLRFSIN

Cytochrome P450 2C9 = Cytochrome P450 2C9 (Homo sapiens, UniProt P11712)
Chain of Cytochrome P450 2C9 (P11712 whole entry): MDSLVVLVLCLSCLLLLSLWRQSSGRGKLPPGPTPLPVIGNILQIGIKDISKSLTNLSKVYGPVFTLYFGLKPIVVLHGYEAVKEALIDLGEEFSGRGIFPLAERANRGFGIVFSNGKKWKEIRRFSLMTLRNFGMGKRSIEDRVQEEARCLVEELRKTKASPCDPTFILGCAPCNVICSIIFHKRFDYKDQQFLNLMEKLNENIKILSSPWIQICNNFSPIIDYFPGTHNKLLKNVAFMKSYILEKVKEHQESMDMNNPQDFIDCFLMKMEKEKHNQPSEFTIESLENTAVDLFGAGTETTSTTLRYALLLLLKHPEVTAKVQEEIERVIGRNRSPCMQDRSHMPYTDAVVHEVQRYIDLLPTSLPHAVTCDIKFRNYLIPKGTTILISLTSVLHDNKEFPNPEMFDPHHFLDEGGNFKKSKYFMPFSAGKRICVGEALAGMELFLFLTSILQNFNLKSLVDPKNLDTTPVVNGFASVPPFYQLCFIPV

Cytochrome P450 2C19 = Cytochrome P450 2C19 (Homo sapiens, UniProt P33261); assay: Cytochrome panel assay with activity outcomes. Panel member name: p450-cyp2c19 Compounds with AC50 equal or less than 10 uM are considered active; assay type: functional; conditions: read-out: AC50
Chain of Cytochrome P450 2C19 (P33261 whole entry): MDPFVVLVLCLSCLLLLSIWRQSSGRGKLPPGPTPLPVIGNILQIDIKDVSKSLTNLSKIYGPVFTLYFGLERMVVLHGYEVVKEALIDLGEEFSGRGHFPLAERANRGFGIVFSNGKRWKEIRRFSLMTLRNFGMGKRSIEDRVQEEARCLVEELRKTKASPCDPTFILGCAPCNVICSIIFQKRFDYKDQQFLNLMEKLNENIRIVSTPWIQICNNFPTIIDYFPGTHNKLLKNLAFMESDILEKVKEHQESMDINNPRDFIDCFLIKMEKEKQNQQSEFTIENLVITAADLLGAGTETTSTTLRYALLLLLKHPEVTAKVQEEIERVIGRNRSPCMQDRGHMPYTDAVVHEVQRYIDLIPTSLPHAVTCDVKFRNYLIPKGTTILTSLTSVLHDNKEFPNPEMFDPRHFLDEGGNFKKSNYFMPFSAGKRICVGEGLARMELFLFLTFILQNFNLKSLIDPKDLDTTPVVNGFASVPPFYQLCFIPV

[1] = molecular target: T2, Heat shock factor protein 1 (Mus musculus, UniProt P38532); assay: inhibition of MG132-induced HSE-luciferase signal, confirmation, cell-based, NIH3T3, luminescence, dose retest (AID 2382); assay type: functional;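 note: NIH3T3 fibroblasts with HSF1-driven luciferase reporter stressed by proteasome inhibitor MG132; luminescence from HSF1-driven luciferase expression after 8 hours of MG132 stress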
T2 sequence (P38532 whole entry): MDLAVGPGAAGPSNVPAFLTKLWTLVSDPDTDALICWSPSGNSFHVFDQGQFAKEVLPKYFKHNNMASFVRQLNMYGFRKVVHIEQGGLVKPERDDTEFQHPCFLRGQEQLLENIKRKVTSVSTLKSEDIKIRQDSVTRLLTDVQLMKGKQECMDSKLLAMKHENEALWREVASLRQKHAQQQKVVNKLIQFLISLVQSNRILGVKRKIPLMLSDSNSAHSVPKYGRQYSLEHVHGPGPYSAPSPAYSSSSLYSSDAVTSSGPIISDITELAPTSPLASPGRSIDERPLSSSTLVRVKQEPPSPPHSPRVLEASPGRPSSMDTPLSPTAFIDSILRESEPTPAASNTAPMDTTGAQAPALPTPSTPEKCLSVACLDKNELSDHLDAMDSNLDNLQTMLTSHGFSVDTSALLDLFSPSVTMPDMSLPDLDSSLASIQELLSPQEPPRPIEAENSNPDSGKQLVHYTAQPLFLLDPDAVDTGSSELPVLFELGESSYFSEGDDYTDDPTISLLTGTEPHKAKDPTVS

Cytochrome P450 2D6 = Cytochrome P450 2D6 (Homo sapiens, UniProt P10635);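 note: CYP2D6 member of a cytochrome P450 panel assay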
Chain of Cytochrome P450 2D6 (P10635 whole entry): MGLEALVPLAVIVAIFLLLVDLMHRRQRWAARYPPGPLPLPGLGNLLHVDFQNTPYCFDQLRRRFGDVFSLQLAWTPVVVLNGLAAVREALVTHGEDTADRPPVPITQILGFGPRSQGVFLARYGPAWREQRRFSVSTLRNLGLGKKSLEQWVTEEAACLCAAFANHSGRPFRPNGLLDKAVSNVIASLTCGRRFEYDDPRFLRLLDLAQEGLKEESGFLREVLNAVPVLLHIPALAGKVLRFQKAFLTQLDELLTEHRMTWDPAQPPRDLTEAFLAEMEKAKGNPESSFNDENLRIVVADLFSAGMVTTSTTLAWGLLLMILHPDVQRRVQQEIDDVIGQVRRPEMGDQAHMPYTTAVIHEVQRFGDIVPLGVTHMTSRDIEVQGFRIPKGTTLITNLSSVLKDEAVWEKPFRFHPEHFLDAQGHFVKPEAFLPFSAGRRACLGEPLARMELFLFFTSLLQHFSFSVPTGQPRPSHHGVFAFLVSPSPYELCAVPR

Cytochrome P450 3A4 = Cytochrome P450 3A4 (Homo sapiens, UniProt P08684);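 note: CYP3A4 tested as one member of a cytochrome P450 panel screen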
Chain of Cytochrome P450 3A4 (P08684 whole entry): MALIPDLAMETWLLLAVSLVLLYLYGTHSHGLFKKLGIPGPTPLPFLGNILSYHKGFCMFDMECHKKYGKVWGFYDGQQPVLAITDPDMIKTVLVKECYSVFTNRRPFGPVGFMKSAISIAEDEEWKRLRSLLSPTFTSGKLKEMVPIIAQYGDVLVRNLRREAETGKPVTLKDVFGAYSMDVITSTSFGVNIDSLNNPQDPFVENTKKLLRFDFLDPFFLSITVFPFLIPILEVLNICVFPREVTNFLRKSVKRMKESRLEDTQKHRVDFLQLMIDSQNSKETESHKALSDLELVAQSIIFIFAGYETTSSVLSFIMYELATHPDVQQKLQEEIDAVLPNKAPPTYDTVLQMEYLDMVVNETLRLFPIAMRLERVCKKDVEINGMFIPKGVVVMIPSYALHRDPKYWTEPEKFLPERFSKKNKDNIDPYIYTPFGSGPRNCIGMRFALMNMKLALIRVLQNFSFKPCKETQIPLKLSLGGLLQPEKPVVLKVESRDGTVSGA

Compound: NC(=O)COc1c(F)cc(SCCNS(=O)(=O)c2ccccc2)cc1F
AC50 (Cytochrome P450 1A2): 31.6 µM (inconclusive)
AC50 (Cytochrome P450 2C9): 31.6 µM (inconclusive)

Compound: CCOC(=O)C1CCCN(CCC(=O)Nc2cc(OC)ccc2OC)C1 (configuration not stated)
EC50 [1]: > 195 µM (not active)

Compound: CN=C(S)N(CCc1c(C)[nH]c2ccc(F)cc12)Cc1cccnc1
EC50 [1]: > 195 µM (not active)

Compound: C=CCC1(C(=O)NCCO)CCN(C(=O)OC(C)(C)C)CC1
EC50 [1]: > 195 µM (not active)

Compound: CCCN[C@@H](C)C(=O)Nc1c(C)csc1C(=O)OC
AC50 (Cytochrome P450 1A2): 12.6 µM (inconclusive)

Compound: CC1CN(C(=S)NC(=O)c2ccc([N+](=O)[O-])cc2)CC(C)O1 (configuration not stated)
AC50 (Cytochrome P450 1A2): 12.6 µM (inconclusive)
AC50 (Cytochrome P450 2C19): 31.6 µM (inconclusive)

Compound: CCOC(=O)c1cc(C(=O)OCC)cc(-n2cc(O)c(C(=O)OCC)n2)c1
AC50 (Cytochrome P450 2D6): 3.16 µM (inconclusive)

Compound: NC(=O)c1ccc[n+](CC(=O)OCCC23CC4CC(CC(C4)C2)C3)c1
AC50 (Cytochrome P450 2D6): 39.8 µM (inconclusive)
EC50 [1]: > 195 µM (not active)

Compound: O=C(CNS(=O)(=O)c1ccc(Br)s1)N1CCC(N2CCCCC2)CC1
AC50 (Cytochrome P450 2C19): 20 µM (inconclusive)

Compound: COc1ccc(CC(C)Nc2cccc(SC)c2)cc1 (configuration not stated)
EC50 [1]: > 195 µM (not active)

Compound: COc1ccc2c(c1)CCc1c(C(=O)N3CCCCCC3)noc1-2
AC50 (Cytochrome P450 2D6): 15.8 µM (inconclusive)
AC50 (Cytochrome P450 2C9): 25.1 µM (inconclusive)

Compound: CCC(C)NCc1ccc(C(=O)OC)o1 (configuration not stated)
AC50 (Cytochrome P450 2D6): 14.1 µM (inconclusive)
AC50 (Cytochrome P450 2C9): 0.447 µM (inconclusive)
AC50 (Cytochrome P450 2C19): 15.8 µM (inconclusive)

Compound: COC(=O)[C@H]1C(=O)[C@H](C(=O)OC)[C@@H]2CC[C@H]1N2C
AC50 (Cytochrome P450 1A2): 0.794 µM (inconclusive)

Compound: CCC(c1nnnn1CCOC)N1CCN(C(=O)c2ccco2)CC1 (configuration not stated)
AC50 (Cytochrome P450 3A4): 28.2 µM (inconclusive)

Compound: O=C1CC(N2CCCCC2)C(=O)N1c1ccccc1 (configuration not stated)
EC50 [1]: > 195 µM (not active)

Compound: CCNc1ncc2nc(-c3cc(F)cc(F)c3)c(=O)n(CCOC)c2n1
AC50 (Cytochrome P450 3A4): 7.94 µM (inconclusive)

Next, values leading:

AC50 (Cytochrome P450 2C9): 1.12 µM (inconclusive)
AC50 (Cytochrome P450 2C19): 39.8 µM (inconclusive)
Compound: CNC(=O)COC(=O)c1cc2c(C)nn(-c3ccc(F)cc3)c2s1

EC50 [1]: > 195 µM (not active)
Compound: COc1ccc(N2CCN(C(CNC(=O)C(=O)NCc3ccncc3)c3ccco3)CC2)cc1 (configuration not stated)

AC50 (Cytochrome P450 1A2): 31.6 µM (inconclusive)
AC50 (Cytochrome P450 2C19): 15.8 µM (inconclusive)
Compound: Cc1ccc(-c2cc(-c3nnc(SCC(=O)NC(C)C(C)C)n3N)c3ccccc3n2)cc1 (configuration not stated)

EC50 [1]: > 195 µM (not active)
Compound: CCCn1c(SCC(=O)c2c(C)[nH]c(C)c2C(=O)OCC)nc2ccccc21

AC50 (Cytochrome P450 2D6): 15.8 µM (inconclusive)
Compound: COc1cc([N+](=O)[O-])ccc1NC(=O)CCCOc1cccc(C)c1

AC50 (Cytochrome P450 2D6): 20 µM (inconclusive)
Compound: CS(=O)(=O)Nc1cccc(-c2cncnc2Nc2ccc(F)cc2)c1

EC50 [1]: > 195 µM (not active)
Compound: COc1cccc(C(c2sc3nc(C)nn3c2O)N2CCN(C(=O)c3ccco3)CC2)c1 (configuration not stated)

AC50 (Cytochrome P450 1A2): 12.6 µM (inconclusive)
Compound: O=C(NCCc1c[nH]c2ccccc12)[C@H]1C[C@@H]1[C@H](NP(=O)(c1ccccc1)c1ccccc1)c1ccccc1

AC50 (Cytochrome P450 2D6): 25.1 µM (inconclusive)
Compound: CC(C)n1nnnc1SCC(=O)NCCc1ccccc1

AC50 (Cytochrome P450 1A2): 20 µM (inconclusive)
Compound: COc1ccc2[nH]cc(CCNc3ncncc3-c3ccc(C(=O)N(C)C)cc3)c2c1

AC50 (Cytochrome P450 2D6): 39.8 µM (inconclusive)
Compound: c1ccc(Nc2nc(-c3ccc4c(c3)OCO4)nc3ccccc23)cc1

EC50 [1]: > 195 µM (not active)
Compound: O=C(OCn1nnc2ccccc2c1=O)c1cc(-c2ccccc2)nc2ccccc12

AC50 (Cytochrome P450 1A2): 5.01 µM (inconclusive)
AC50 (Cytochrome P450 2C9): 25.1 µM (inconclusive)
AC50 (Cytochrome P450 2C19): 31.6 µM (inconclusive)
Compound: COC(=O)[C@@]1(Cc2ccccc2)[C@H]2c3cc(C(=O)N(C)C)n(CCN4CNCC4=O)c3C[C@H]2CN1C(=O)c1ccccc1

AC50 (Cytochrome P450 2D6): 20 µM (inconclusive)
AC50 (Cytochrome P450 2C19): 31.6 µM (inconclusive)
Compound: CNc1nc(-c2ccccc2C(F)(F)F)nc2ccccc12

EC50 [1]: > 195 µM (not active)
Compound: CCOC(=O)c1sc(NC(=O)CSc2nnc(-c3ccccc3)[nH]2)c(C#N)c1C
